Laboratory results reported in BindingDB's records for doi:10.1016/s0960-894x(98)00576-9 (Research Triangle Institute, 1999).

Assay: Compound was tested for the inhibition of [35S]GTP-gamma-S, binding in Guinea pig Caudate stimulated by the Opioid receptor delta 1 agonist Delta-SNC80

| SMILES | Ki |
| --- | --- |
| CN1CC[C@]2(c3cccc(O)c3)Cc3ccccc3C[C@]2(C)C1 [3-((4aS,10aS)-2,10a-Dimethyl-1,3,4,5,10,10a-hexahydro-2H-benzo[g]isoquinolin-4a-yl)-phenol] | 222 nM |
| C[C@]12Cc3ccccc3C[C@@]1(c1cccc(O)c1)CCN(CCc1ccccc1)C2 [3-((4aS,10aS)-10a-Methyl-2-phenethyl-1,3,4,5,10,10a-hexahydro-2H-benzo[g]isoquinolin-4a-yl)-phenol] | 184 nM |
